Laboratory results reported in US20260158139A1, “CARD9 VARIANT POLYPEPTIDE AND ANTIBODIES DIRECTED THERETO” (The Broad Institute, Inc., priority 2023, published 2026).

Biological target: T1, PKCδ (Mus musculus, UniProt P28867)
T1 construct: endogenous in cells; host or cells: mouse bone-marrow-derived dendritic cells (BMDCs) from WT mice
Experiment: CARD9 immunoprecipitation and western blot for pS104-CARD9 in BMDCs stimulated with HKCA
Format: cell-based
Conditions: 10 uM, added 1 h before stimulation; BMDCs from WT mice stimulated with HKCA (MOI 1:10)
Method: FIGS. 3A-3H provide graphs and pictures showing that CARD9 R101 functions as a signaling switch activated by S104 phosphorylation. FIG. 3A, BMDCs expressing Cas9 were transduced with guides for the corresponding genes on day 2 and selected with puromycin. On day 9 cells were stimulated with 100 ug/ml WGP O/N and IL-6 levels in supernatant were measured with ELISA. FIG. 3B, BMDCs expressing Cas9 were transduced with guides for the corresponding genes on day 2 and selected with puromycin. On day 9 cells were stimulated with HKCA (MOI 1:10), HKTR (1:10) or LPS (10 ng/ml) for 30 min. p65 nuclear translocation was measured using fluorescence imaging. The bars in the graph are shown in groups of 6 (from left to right, EGFP, EGFP, PAK2, PAK2, PKCd, PKCd) for each different condition (i.e., untreated, HKCA, HKTR, LPS). FIG. 3C, CARD9 FL, CARD9 R101C or CARD9 S104N were overexpressed in HEK 293T cells. […] Samples were analyzed by WB with the indicated antibodies. […] Samples were analyzed by WB with the indicated antibodies. FIG. 3F, Normalized fluorescence polarization representing filament formation between different CARD9 2-152 variants and Bcl10, average of quadruplicates. […] FIG. 3H, Expression of CARD9 in the lysates from panel g determined by western blot (WB) with the indicated antibodies. […]

T1 sequence (P28867 whole entry): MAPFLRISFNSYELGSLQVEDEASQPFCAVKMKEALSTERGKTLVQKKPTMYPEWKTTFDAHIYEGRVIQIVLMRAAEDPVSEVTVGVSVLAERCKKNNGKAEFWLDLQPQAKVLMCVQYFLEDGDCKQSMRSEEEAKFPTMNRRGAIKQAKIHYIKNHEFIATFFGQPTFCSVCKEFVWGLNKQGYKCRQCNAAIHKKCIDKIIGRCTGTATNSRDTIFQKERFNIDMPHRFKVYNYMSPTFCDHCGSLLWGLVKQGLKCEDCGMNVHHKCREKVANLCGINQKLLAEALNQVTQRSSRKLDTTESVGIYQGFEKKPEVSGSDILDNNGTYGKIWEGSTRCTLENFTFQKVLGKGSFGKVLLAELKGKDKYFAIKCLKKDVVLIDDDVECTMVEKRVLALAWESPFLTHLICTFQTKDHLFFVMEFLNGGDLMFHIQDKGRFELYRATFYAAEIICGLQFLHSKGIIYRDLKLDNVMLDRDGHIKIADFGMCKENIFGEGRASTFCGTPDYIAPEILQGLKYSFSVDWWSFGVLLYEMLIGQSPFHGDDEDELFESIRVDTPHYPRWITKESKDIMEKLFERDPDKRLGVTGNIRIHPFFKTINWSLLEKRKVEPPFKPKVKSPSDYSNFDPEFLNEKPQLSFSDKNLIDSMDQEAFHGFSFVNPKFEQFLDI

CARD9 S104 phosphorylation: inhibition of CARD9 S104 phosphorylation
SMILES: CN1CCN(c2nc(C3=C(c4c[nH]c5ccccc45)C(=O)NC3=O)c3ccccc3n2)CC1 [Sotrastaurin]
